Experimental data reported in patent publication US20240189344A1, “METHODS USING CARBON DIOXIDE AND OXYGEN TO IMPROVE CHARACTERISTICS OF POULTRY” (priority 2022, published 2024).

Legend:
Ross 708 chickens = experiment: Livability: percentage of hatched birds surviving to 28 days after CO2 incubation; format: in vivo, chicken; conditions: for percentage of birds that survived compared to control: 28 days
Description: 900 fertilized eggs from a commonly used commercial chicken strain, Ross 708, that were less than 1 week old since being laid, and laid in the same laying facility by layers (chickens) of the same age, were split equally into three batches of 300 each. One batch, referred to as control batch, was incubated for 18 days in an atmosphere in which no additional CO2 was injected into this atmosphere from any source outside the egg. For this batch, the CO2 concentration inside the incubator varied between the CO2 concentration of the ambient atmosphere (i.e. about 409 ppm) and as high as 1,500 ppm (resulting from CO2 generation by the eggs themselves). The second batch, referred to as 4,000 ppm test CO2 batch or 0.4% CO2 test batch, was incubated for 18 days wherein the CO2 concentration in the incubator from the start of the first day through the end of the eighteenth day was maintained at 4,000 ppm (i.e. 0.4% CO2) by occasional injections of CO2 as necessary. The third batch, referred to as 10,000 ppm test CO2 batch or 1% CO2 test batch, was incubated for 18 days according to Regimen 1 described herein, wherein the CO2 concentration in the incubator from the start of the first day through the end of the eighteenth day was maintained at 10,000 ppm (i.e. 1% CO2) by occasional injections of CO2 as necessary. All three batches were incubated at approximately 100° F. and between 30% and 70% relative humidity. At the end of the eighteenth day of incubation, all three batches of eggs were transferred to hatcher equipment, where the eggs hatched over the next 3 days. […]
Once the chicks hatched, approximately 150 of the male chicks from each batch were taken to grow cages and they began to be fed water and feed. […] Then the birds were measured for Woody Breast scores by manual palpitation by a trained panel of experts under single-blinded conditions. […] Score 0 means no WB was detected. Score 3 meant very high levels of WB detected and scores 1 and 2 meant intermediate levels of WB were detected. […]

[1] = tested on: fertilized Ross 708 chicken eggs; experiment: Percent of fertile eggs hatched at end of 21 days of incubation under controlled CO2; format: in vivo
Description: (§1) 900 fertilized eggs from a commonly used commercial chicken strain, Ross 708, that were less than 1 week old since being laid, and laid in the same laying facility by layers (chickens) of the same age, were split equally into three batches of 300 each. One batch, referred to as control batch, was incubated for 18 days in an atmosphere in which no additional CO2 was injected into this atmosphere from any source outside the egg. For this batch, the CO2 concentration inside the incubator varied between the CO2 concentration of the ambient atmosphere (i.e. about 409 ppm) and as high as 1,500 ppm (resulting from CO2 generation by the eggs themselves). The second batch, referred to as 4,000 ppm test CO2 batch or 0.4% CO2 test batch, was incubated for 18 days wherein the CO2 concentration in the incubator from the start of the first day through the end of the eighteenth day was maintained at 4,000 ppm (i.e. 0.4% CO2) by occasional injections of CO2 as necessary. The third batch, referred to as 10,000 ppm test CO2 batch or 1% CO2 test batch, was incubated for 18 days according to Regimen 1 described herein, wherein the CO2 concentration in the incubator from the start of the first day through the end of the eighteenth day was maintained at 10,000 ppm (i.e. 1% CO2) by occasional injections of CO2 as necessary. All three batches were incubated at approximately 100° F. and between 30% and 70% relative humidity. At the end of the eighteenth day of incubation, all three batches of eggs were transferred to hatcher equipment, where the eggs hatched over the next 3 days. No external CO2 was injected into the hatcher from any source outside the eggs for this period of 3 days. Thus, the only difference between the conditions under which the three batches were incubated was that in the control batch no additional CO2 was injected, whereas for the other two batches additional, external CO2 was injected to subject the eggs to CO2 concentrations of 4,000 ppm and 10,000 ppm respectively. During the incubation period the oxygen concentration in the control incubator was always above 20%, whereas in the 4,000 ppm and 10,000 ppm CO2 controlled incubators, the oxygen level was typically above 19%.
(§2) 600 fertilized eggs from a commonly used commercial chicken strain, Ross 708, that were less than 1 week old since being laid, and laid in the same laying facility by layers (chickens) of the same age, were split equally into batches of 300 each. One batch, referred to as control batch, was incubated for 18 days in an atmosphere in which no additional CO2 was injected into this atmosphere from any source outside the egg. […]

[2] = Average bird weight at hatch and at 28 days after CO2 incubation; format: in vivo, chicken
Description: as §1
(§3) Once the chicks hatched, approximately 150 of the male chicks from each batch were taken to grow cages and they began to be fed water and feed. From this point onwards, there was no difference in the treatment of the birds. 28 days after hatching the chickens from each batch were weighed and then stunned. Then the birds were measured for Woody Breast scores by manual palpitation by a trained panel of experts under single-blinded conditions. Each breast was given a score of either 0, 1, 2 or 3. Score 0 means no WB was detected. Score 3 meant very high levels of WB detected and scores 1 and 2 meant intermediate levels of WB were detected.
as §2, with “egg. For this batch, the CO2 concentration inside the incubator varied between ambient atmospheric (i.e. about 409 ppm) and as high as 1,500 ppm (resulting from CO2 generation by the egg).” for “egg.”

[3] = tested on: Ross 708 chickens (Woody Breast); experiment: Woody Breast scores by manual palpation in chickens hatched from eggs incubated under controlled CO2; format: in vivo, chicken
Description: as §1, §3
as §2, with “egg. For this batch, the CO2 concentration inside the incubator varied between ambient atmospheric (i.e. about 409 ppm) and as high as 1,500 ppm (resulting from CO2 generation by the egg).” for “egg.”

[4] = Regimen 1, constant 1% CO2 for 18 days

Structure (SMILES): O=C=O [CO2, carbon dioxide]
- more hatched birds surviving to end of 28 days compared to control (Ross 708 chickens; [4]): Approximately 4%
- percentage of birds that survived compared to control (Ross 708 chickens; Regimen 2, 1% CO2 ramp up): no statistical difference
- percentage of birds that survived compared to control (Ross 708 chickens; Regimen 3, 0.75% CO2 on-off): no statistical difference
- percent of fertile eggs that hatched at the end of 21 days of incubation ([1]; Regimen 1, constant 10,000 ppm (1%) CO2 for 18 days, control 88.1%): 93.5%
- percent of fertile eggs that hatched at the end of 21 days of incubation ([1]; Regimen 2, 1% CO2 ramp up, control 91%): 94.1%
- percent of fertile eggs that hatched at the end of 21 days of incubation ([1]; Regimen 3, 0.75% CO2 on-off, control 88.7%): 96%
- percent of fertile eggs that hatched at the end of 21 days of incubation ([1]; constant 4,000 ppm (0.4%) CO2 for 18 days, control 88.1%): 95.6%
- average final weight at 28 days, higher than control by [2, 4]: approximately 5%
- increase of average weight just after hatch vs control [2, 4]: approximately 5%
- average weight at hatch, lower than control by ([2]; Regimen 2, 1% CO2 ramp up): approximately 6.5%
- weight at 28 days compared to control birds ([2]; Regimen 2, 1% CO2 ramp up): slightly heavier
- average weight at hatch, lower than control by ([2]; Regimen 3, 0.75% CO2 on-off): approximately 1.5%
- weight at 28 days, heavier than control birds by ([2]; Regimen 3, 0.75% CO2 on-off): 11%
- % of birds scoring 1 (Woody Breast score) ([3]; Regimen 1, constant 10,000 ppm (1%) CO2 for 18 days, 28 days after hatching, control 24%): 15%
- incidence of WB compared to control birds ([3]; Regimen 1, constant 10,000 ppm (1%) CO2 in incubator for 18 days, scored 28 days after hatching): significantly reduced
- % of birds scoring 1 (Woody Breast score) ([3]; Regimen 2, 1% CO2 ramp up, 28 days after hatching, control 13%): 8%
- incidence of WB compared to control birds ([3]; Regimen 2, CO2 ramp up in equal daily steps to 10,000 ppm (1%) on day 18, 28 days after hatching): significantly reduced
- % of birds scoring 2 (Woody Breast score) ([3]; Regimen 3, 0.75% CO2 on-off, 28 days after hatching, control 5%): 1%
- % of birds scoring 1 (Woody Breast score) ([3]; Regimen 3, 0.75% CO2 on-off, 28 days after hatching, control 23%): 17%
- % of birds scoring 0 (Woody Breast score) ([3]; Regimen 3, 0.75% CO2 on-off, 28 days after hatching, control 73%): 82%
- incidence of WB compared to control birds ([3]; Regimen 3, 7,500 ppm (0.75%) CO2 on-off on alternate 24 h periods till day 18, 28 days after hatching): significantly reduced
- WB scores compared to control ([3]; constant 4,000 ppm (0.4%) CO2 for 18 days, 28 days after hatching): higher
- % of birds scoring 2 (Woody Breast score) ([3]; constant 4,000 ppm (0.4%) CO2 for 18 days, 28 days after hatching, control 1%): 9%
